Nine compounds from patent publication US12054497B2, “Substituted heterocyclic fused cyclic compound, preparation method therefor and pharmaceutical use thereof” (GENFLEET THERAPEUTICS (SHANGHAI) INC., priority 2019, dated 2024) can be followed below.

Where two headings read alike, the source gives them in different places. Bounds are passed on as bounds.

The subject of experiment [1] is A549 cells with Kras G12S mutation. Briefly: Cell proliferation inhibition experiment, 3D spheroid, CellTiter-Glo (Test Example 1). In kind it is cell-based, human. As to conditions: 5 days. The method, boiled down: (§1)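 NCI-H358 (800 cells/well) and A549 (400 cells/well) grown overnight as 3D spheroids in 2% FBS medium, then exposed to compound dilution series (3.16-fold, 0.1% DMSO) for 5 days. CellTiter-Glo luminescence read; inhibition relative to DMSO and blank, IC50 by four-parameter fit.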
For orientation: In ATP-based viability assays light output follows the ATP content of the culture.

The subject of experiment [2] is NCI-H358 cells with Kras G12C mutation. The description is as above. In kind it is cell-based, human. Particulars: 5 days. The method, boiled down: as §1
Experiment [3] deals with phosphorylated ERK in MIA PaCa2 cells with Kras G12C mutation. Briefly: p-ERK HTRF assay for cells (Test Example 2). It counts as cell-based, human. The method, boiled down:
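MIA PaCa2 cells (2.5E4/well, seeded overnight) treated 2 h with compound in a 3.16-fold series at 0.1% DMSO. Cells lysed 30 min; p-ERK read by HTRF after 4 h antibody incubation. Inhibition relative to DMSO and blank; IC50 by four-parameter fit.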

Experiment [4] has as its system MIA PaCa-2 cells with Kras G12C mutation. Briefly: Cell proliferation inhibition experiment, 3D spheroid, CellTiter-Glo (Test Example 3). In kind it is cell-based, human. As to conditions: Homo sapiens, 5 days, read-out: MIA-PaCa2 IC50. The method, boiled down: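 MIA PaCa-2 spheroids (200 cells/well) were formed overnight, then exposed for 5 days to compounds in 3.16-fold dilutions at 0.1% DMSO. Viability was read by CellTiter-Glo luminescence, and inhibition was normalised to DMSO control and medium blank. IC50 came from a four-parameter fit.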

In the next experiment the target is KRas G12C (Homo sapiens (Human), UniProt P01116, G12C). Briefly: Nucleotide exchange assay (NEA)-HTRF, SOS1 catalyzed displacement of GDP by GTP (Test Example 4). It counts as biochemical. The method, then: The effects of compounds on SOS1 catalyzed displacement of GDP by GTP on KRas proteins was examined by homogeneous time-resolved fluorescence (HTRF). 30 μM 6×his labeled KRas G12C recombinant protein and 80 μM fluorochrome DY647 labeled GDP were co-incubated in a labeling buffer (1 mM DTT, 7.5 mM EDTA, 25 mM Tris-HCl, 45 mM NaCl) at 20° C. away from light for 2 hours. Protein quantification was performed after purification on the NAP-5 column to determine the concentration of KRas G12C-GDP.
KRas G12C, sequence (P01116-2 other isoform, or with tags, fused parts or gaps G12C): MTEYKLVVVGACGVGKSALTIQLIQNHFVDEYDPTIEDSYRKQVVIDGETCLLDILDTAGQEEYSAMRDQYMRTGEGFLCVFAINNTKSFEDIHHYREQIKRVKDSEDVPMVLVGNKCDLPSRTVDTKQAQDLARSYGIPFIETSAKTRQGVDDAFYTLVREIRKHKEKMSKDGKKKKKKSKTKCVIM
1000× stock solutions of compounds at a concentration gradient of 3.16 were prepared by using DMSO, and diluted 250 times by a reaction buffer (40 mM N-2-hydroxyethylpiperazine-N-2-ethane sulfonic acid (HEPES), 10 mM MgCl2, 1 mM DTT, 0.002% Triton X-100) into 4× stock solutions of compounds. KRas G12C-GDP/Tb working solution (40 nM KRas G12C-GDP, 1×anti-his Tb) and SOS1/GTP working solution (0.2 μM SOS1, 200 μM GTP) were prepared by using the reaction buffer.
5 μl of 4×stock solution of a compound and 10 μl of KRas G12C-GDP/T working solution were added to each well of 96-well plate with white unclear bottom, and 5 μl of reaction buffer was added to the well of control group in stead of the 4×stock solution of a compound. After incubation at 20° C. away from light for 15 minutes, 5 μl of SOS1/GTP working solution was added and incubated at 20° C. away from light for 2 hours, and then a value of fluorescence intensity was read (excitation wavelength: 320 nm, and emission wavelengths: 615 nm and 665 nm). Besides, group TO was established with 10 μl of the reaction buffer and 10 μl of the KRas G12C-GDP/Tb working solution, and the value of fluorescence intensity was directly read. A relative light unit (RLU) was calculated by the following equation: RLU=(665 nm signal/615 nm signal)×10^4; and the inhibition rate (IR) of the compound was calculated by the following equation: IR (%)=(RLUcompound−RLUcontrol)/(RLUT0−RLUcontrol)×100%. The value of IC50 was calculated by fitting a gradiently diluted concentration of the compound and the corresponding cell proliferation inhibition rate using a four-parameter method.
In general terms: Time-resolved FRET reads energy transfer from a long-lived donor to a nearby acceptor.

Setting [5] is: Homo sapiens, MIA PaCa-2, 2 h, MIA PaCa2 cells, 2 hours with compound, read-out: p-ERK IC50.
Where [6] appears, read: MIA PaCa2 cells, 2 hours with compound, read-out: p-ERK IC50.

As for `C=CC(=O)N1CCN2c3c(c(=O)n(-c4c(C)ncnc4C(C)C)c4nc(-c5c(O)cccc5F)c(F)cc34)N(C)C(=O)[C@H]2C1` [Compound Z21, (4aR)-3-acryloyl-11-fluoro-10-(2-fluoro-6-hydroxyphenyl)-8-(4-isopropyl-6-methylpyrimidin-5-yl)-6-methyl-2,3,4,4a,6,8-hexahydro-1H-pyrazino[1′,2′:4,5]pyrazino[2,3-c][1,8]naphthyridin-5,7-dione], the concentration for half-maximal inhibition (IC50) in experiment [1] (Homo sapiens, A549, 120 h) is over 30000 nM; in experiment [2] (Homo sapiens, NCI-H358, 120 h), 23 nM; in experiment [3] (setting [5]) it was 271 nM; in experiment [4] (MIA PaCa-2, 120 h) it was 47 nM; on KRas G12C, 388 nM.
The like results for `C=CC(=O)N1C[C@@H]2C(=O)N(C)c3c(c4cc(Cl)c(-c5c(O)cccc5F)c(F)c4n(-c4c(C(C)C)ncnc4C(C)C)c3=O)N2C[C@H]1C` [Compound Z50] were, in that order, 28300 nM, 0.5 nM, 7 nM, 2 nM and 19 nM.
On to `C=CC(=O)N1CCN2c3c(c(=O)n(-c4c(C)ccnc4C(C)C)c4nc(-c5c(O)cccc5F)c(F)cc34)OC[C@H]2C1` (single isomer, unassigned) [Compound Z1-1], for which the IC50 worked out at 10700 nM in experiment [1]; 31 nM in experiment [2]; 512 nM in experiment [3] (setting [5]); 95 nM in experiment [4] (MIA PaCa-2, 120 h); 152 nM at KRas G12C.
Turning to `C=CC(=O)N1C[C@@H]2C(=O)Nc3c(c4cc(F)c(-c5c(O)cccc5F)nc4n(-c4c(C)ccnc4C(C)C)c3=O)N2C[C@H]1C` [Compound Z35, (2R,4aR)-3-acryloyl-11-fluoro-10-(2-fluoro-6-hydroxyphenyl)-8-(2-isopropyl-4-methylpyridin-3-yl)-2-methyl-2,3,4,4a,6,8-hexahydro-1H-pyrazino[1′, 2′:4]pyrazino[2,3,3-c][1,8,8]naphthyridin-5-dione], the IC50 amounted to 28200 nM in experiment [1] (Homo sapiens, A549, 120 h); 6 nM in experiment [2]; 83 nM in experiment [3] (setting [6]); 15 nM in experiment [4] (MIA PaCa-2, 120 h); 73 nM at KRas G12C.
With `C=CC(=O)N1C[C@@H]2C(=O)N(C)c3c(c4cc(Cl)c(-c5c(O)cccc5F)nc4n(-c4c(C)ccnc4C(C)C)c3=O)N2C[C@H]1C` [Compound Z27, (2R,4aR)-3-acryloyl-11-chloro-10-(2-fluoro-6-hydroxyphenyl)-8-(2-isopropyl-4-methylpyridin-3-yl)-2,6-dimethyl-2,3,4,4a,6,8-hexahydro-1H-pyrazino[1′,2′:4,5]pyrazino[2,3-c][1,8]naphthyridin-5,7-dione], the IC50 in experiment [1] (Homo sapiens, A549, 120 h) worked out at 10100 nM; in experiment [2] (Homo sapiens, NCI-H358, 120 h), 2 nM; in experiment [3] (setting [5]) it was 29 nM; in experiment [4] (MIA PaCa-2, 120 h), 4 nM; on KRas G12C, 27 nM.
Turning to `C=CC(=O)N1C[C@@H]2C(=O)N(C)c3c(c4cc(C5CC5)c(-c5c(O)cccc5F)nc4n(-c4c(C)ccnc4C(C)C)c3=O)N2C[C@H]1C` [Compound Z31, (2R,4aR)-3-acryloyl-11-cyclopropyl-10-(2-fluoro-6-hydroxyphenyl)-8-(2-isopropyl-4-methylpyridin-3-yl)-2,6-dimethyl-2,3,4,4a,6,8-hexahydro-1H-pyrazino[1′,2′:4,5]pyrazino[2,3-c][1,8]naphthyridin-5,7-dione], the IC50 in experiment [1] (Homo sapiens, A549, 120 h) is 9490 nM; in experiment [2] (Homo sapiens, NCI-H358, 120 h) it was 17 nM; in experiment [3] (setting [5]), 206 nM; in experiment [4] (MIA PaCa-2, 120 h) it was 59 nM; at KRas G12C, 151 nM.
As to `C=CC(=O)N1C[C@@H]2C(=O)N(C)c3c(c4cc(Cl)c(-c5c(O)cccc5F)c(F)c4n(-c4c(C(C)C)ncnc4C(C)C)c3=O)N2C[C@H]1C` (single isomer, unassigned) [Compound Z50-1], the IC50 in experiment [1] was over 30000 nM; in experiment [2], 0.3 nM; in experiment [3] (setting [6]) it was 6 nM; in experiment [4] (MIA PaCa-2, 120 h) it was 1 nM; at KRas G12C, 8 nM.
As to `C=CC(=O)N1CCN2c3c(c(=O)n(-c4c(C)ccnc4C(C)C)c4nc(-c5c(O)cccc5F)c(Cl)cc34)N(C)C(=O)[C@H]2C1` [Compound Z25, (4aR)-3-acryloyl-11-chloro-10-(2-fluoro-6-hydroxyphenyl)-8-(2-isopropyl-4-methylpyridin-3-yl)-6-methyl-2,3,4,4a,6,8-hexahydro-1H-pyrazino[1′,2′:4,5]pyrazino[2,3-c][1,8]naphthyridin-5,7-dione], the IC50 came to 28300 nM in experiment [1] (Homo sapiens, A549, 120 h); 4 nM in experiment [2] (Homo sapiens, NCI-H358, 120 h); 51 nM in experiment [3] (Homo sapiens, MIA PaCa-2, 2 h, read-out: p-ERK IC50, MIA PaCa2 cells, 2 hours with compound); 8 nM in experiment [4] (120 h); 60 nM at KRas G12C.
As for `C=CC(=O)N1CCN2c3c(c(=O)n(-c4c(C)ccnc4C(C)C)c4nc(-c5c(O)cccc5F)c(F)cc34)N(CC)C(=O)[C@H]2C1` [Compound Z30, (4aR)-3-acryloyl-6-ethyl-11-fluoro-10-(2-fluoro-6-hydroxyphenyl)-8-(2-isopropyl-4-methylpyridin-3-yl)-2,3,4,4a,6,8-hexahydro-1H-pyrazino[1′,2′:4,5]pyrazino[2,3-c][1,8]naphthyridin-5,7-dione], the IC50 in experiment [1] (Homo sapiens, A549, 120 h) is over 30000 nM; in experiment [2] it was 51 nM; in experiment [3] (setting [5]) it was 676 nM; in experiment [4] (MIA PaCa-2, 120 h), 140 nM; at KRas G12C, 656 nM.

One may read the IC50 as the concentration that gives 50% inhibition.
